Reference: paper PMC2185977 (The Journal of Experimental Medicine, 1980)

Tests used:
[1] = system: IgMWEA; assay: Quantitative precipitin inhibition, IgMWEA + Bacto agar 20C extract; assay type: binding, human; details: for times more active than sodium pyruvate on a molar basis: inhibiting precipitation of IgMWEA by agar; for inhibition of precipitation of IgMWEA by agar: even at 100 μmol inhibitor
[2] = system: IgMMAY; assay: Quantitative precipitin inhibition, IgMMAY + Klebsiella K21; assay type: binding, human; details: for times more active than pyruvate in inhibiting the Klebsiella K21 precipitin reaction: IgMMAY; for inhibition of precipitation of IgMMAY by Klebsiella K21: 25 μl 1:5 dilution IgMMAY + 1.6 μg Klebsiella K21, Fig. 3B
[3] = system: anti-Klebsiella K11; details: cited from earlier work
[4] = system: IgMWEA; assay: Precipitin inhibition, IgMWEA-Helix pomatia galactan; assay type: binding, human; details: data not shown
[5] = system: IgMWEA; assay: Quantitative precipitin reaction of purified IgMWEA with polysaccharides; assay type: binding, human; details: ~8 μg N purified IgMWEA, total volume 350 μl, Fig. 1A

Molecule | inhibition of precipitation of IgMMAY by Klebsiella K21 [2] | precipitin reaction with IgMWEA [5] | other results
CO[C@H]1O[C@@H]2CO[C@@](C)(C(=O)O)O[C@@H]2[C@H](O)[C@H]1O (single isomer, unassigned) [methyl 4,6pyDGalα R isomer] |  |  | times more active than sodium pyruvate on a molar basis [1]: > 20 times; times more active than pyruvate in inhibiting the Klebsiella K21 precipitin reaction [2]: 150 times
CO[C@H]1O[C@@H]2CO[C@@](C)(C(=O)O)O[C@@H]2[C@H](O)[C@H]1O (single isomer, unassigned) [methyl 4,6pyDGalα S isomer] | inactive |  | inhibition of Klebsiella K11-anti-Klebsiella K11 [3]: does not inhibit
CO[C@@H]1O[C@@H]2COC(C)(C(=O)O)O[C@@H]2[C@H](O)[C@H]1O (single isomer, unassigned) [methyl 4,6pyDGalβ R isomer, methyl 4,6-O-(1-carboxyethylidene) ~-o-galactopyranoside] |  |  | times more active than sodium pyruvate on a molar basis [1]: > 20 times; times more active than pyruvate in inhibiting the Klebsiella K21 precipitin reaction [2]: 150 times
O=P(O)(O)O[C@H]1O[C@H](CO)[C@H](O)[C@H](O)[C@H]1O [D-galactose-1-phosphate] | no inhibition |  | 
O=C[C@H](O)[C@@H](O)[C@@H](O)[C@H](O)COP(=O)(O)O [D-galactose-6-phosphate] | no inhibition |  | 
O=P(O)(O)O[C@H]1O[C@H](CO)[C@@H](O)[C@H](O)[C@H]1O [D-glucose-1-phosphate, D-glucose-l-phosphate] | no inhibition |  | 
O=C[C@H](O)[C@@H](O)[C@@H](O)[C@H](O)CO [DGal, D-galactose] | Neither DGal, its methyl a- and/~-glycosides, nor any of the other neutral sugars tested gave any inhibition |  | inhibition of precipitation of IgMWEA by agar [1]: no inhibition
CO[C@H]1O[C@H](CO)[C@H](O)[C@H](O)[C@H]1O [methyl α-DGal, methyl a-DGal] | no inhibition |  | inhibition of precipitation of IgMWEA by agar [1]: no inhibition
COC1OC(CO)C(O)C(O)C1O (stereo not drawn) [methyl β-DGal, methyl /~-DGal] | no inhibition |  | inhibition of precipitation of IgMWEA by agar [1]: no inhibition
CC(O)C(=O)[O-].[Na+] (stereo not shown) [sodium lactate] |  |  | inhibition of precipitin reaction of IgMWEA-Helix pomatia galactan [4]: inactive
CCC(=O)[O-].[Na+] [sodium propionate] |  |  | inhibition of precipitin reaction of IgMWEA-Helix pomatia galactan [4]: inactive
CC(=O)C(=O)O [sodium pyruvate, Sodium pyruvate] | better than lactate and propionate |  | inhibition of precipitin reaction of IgMWEA-Helix pomatia galactan [4]: inhibited
Larch arabinogalactan |  | inactive | 
agarose |  | inactive | 
dextran sulfate |  | did react | 
heparin |  | failed to precipitate | 
keratosulfate |  | failed to precipitate | 
xanthan gum |  | failed to precipitate | 
